One data set addresses T1, mGAT4 (Mus musculus, UniProt P31650).
T1 sequence (P31650 1-627): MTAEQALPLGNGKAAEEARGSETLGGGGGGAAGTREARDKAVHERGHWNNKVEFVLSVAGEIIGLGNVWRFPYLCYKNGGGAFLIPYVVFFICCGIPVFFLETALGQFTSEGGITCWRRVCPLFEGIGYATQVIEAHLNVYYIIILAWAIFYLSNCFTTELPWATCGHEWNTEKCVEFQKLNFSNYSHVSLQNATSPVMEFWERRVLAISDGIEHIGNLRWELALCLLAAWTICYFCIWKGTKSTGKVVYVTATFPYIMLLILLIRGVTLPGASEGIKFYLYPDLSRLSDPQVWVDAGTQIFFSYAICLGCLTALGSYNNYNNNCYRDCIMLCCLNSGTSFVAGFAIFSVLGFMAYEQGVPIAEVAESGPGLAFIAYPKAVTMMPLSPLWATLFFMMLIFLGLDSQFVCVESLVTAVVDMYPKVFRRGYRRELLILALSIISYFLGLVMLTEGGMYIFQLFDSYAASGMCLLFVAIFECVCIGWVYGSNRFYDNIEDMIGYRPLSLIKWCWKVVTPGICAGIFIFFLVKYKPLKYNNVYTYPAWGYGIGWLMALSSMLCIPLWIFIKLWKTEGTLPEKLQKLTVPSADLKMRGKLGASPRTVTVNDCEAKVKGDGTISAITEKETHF
The experiment in a line: [3H]GABA uptake assay, mGAT4. The data set is classed as cell-based.

A further data set concerns the target T2, eqBuChE (Equus caballus, UniProt P81908).
T2 construct: purchased Sigma-Aldrich
Description: biochemical. Particulars: means±SEM of at least three experiments.

Data set [1] concerns SH-SY5Y cells. Description: LC-MS determination of total MDA, SH-SY5Y. The data set is classed as cell-based, human. Particulars: all time intervals.
For data set [2], the system named is SH-SY5Y cells. The experiment in a line: Intracellular RONS, DCFH-DA probe, SH-SY5Y. The format is cell-based, human. Particulars: IC50, ½ IC50, ¼ IC50, 1, 4, 24 h.
Data set [3] can be described thus: Metabolic stability in human liver microsomes. The data set is classed as in vitro ADME. Particulars: 120 min incubation with HLMs. As to the method: The in silico prediction of the most probable sites of metabolism was done by MetaSite 6.0.1 software (Molecular Discovery Ltd, Hertfordshire, UK). The metabolic pathways determination in vitro was performed by 120 min compounds incubation with human liver microsomes (HLMs) purchased from Sigma-Aldrich, St. Louis, MO, USA. The reactions were conducted in 10 mM Tris–HCl buffer (pH 7.4) at 37 °C in the presence of NADPH Regeneration System (Promega, Madison, WI, USA). UPLC/MS analyses were done using the Waters ACQUITY TQD system with the TQ Detector (Waters, Milford, USA).
UPLC chromatograms of the reaction mixtures and the proposed structures of metabolites.
Figure S46. UPLC spectra after 120 min incubation of compound 6 with HLMs. 89.57% of the parent compound remained in the reaction mixture. One metabolite (M1, m/z = 460.30) […]
(1 picture or pasted object on this page, not shown here)
A general note: Liver microsomes are a subcellular fraction often used to study metabolism.

In data set [4] the target is serotonin transporter (SERT) (Homo sapiens, UniProt P31645). The experiment in a line: Interaction with serotonin transporter.
Data set [5] addresses T3, human serotonin 5-HT7 receptor (Homo sapiens, UniProt P34969).
T3 construct: host or cells: CHO-K1 (with CRE-bla reporter)
The experiment in a line: cAMP 5-HT7 functional assay. The format is cell-based.
Description: Functional assays for 5-HT7 receptor
Test and reference compounds were dissolved in dimethyl sulfoxide (DMSO) at a
concentration of 10 mM. Serial dilutions were prepared in a 96-well microplate in assay
buffer, and 8 to 10 concentrations were tested. For the 5-HT7, adenylyl cyclase activity was
The functional assay was performed on cells expressing the human 5-
CHO-K1 cells were transfected with a beta-
lactamase (bla) reporter gene under the control of the cyclic AMP response element (CRE)
(Life Technologies). Thawed cells were resuspended in stimulation buffer (HBSS, 5 mM
HEPES, 0.5 IBMX, and 0.1% BSA at pH 7.4) at 2x10^5 cells/ml for 5-HT7 receptor. The same
volume (10 μl) of cell suspension was added to tested compounds for the 5 -HT7 receptor.
Samples were loaded onto a white opaque half-area 96-well microplate. The antagonist
The agonist and antagonist were added simultaneously. Cell stimulation was
performed for 1 h at room temperature. After incubation, cAMP measurements were
performed with homogeneous TR-FRET immunoassay using the LANCE Ultra cAMP kit
(PerkinElmer, USA). The volume of 10 μl of EucAMP Tracer Working Solution and 10 μl of
ULight-anti-cAMP Tracer Working Solution were added, mixed, and incubated for 1 h.
TR-FRET signal was read on an EnVision microplate reader (PerkinElmer, USA). IC50 and
EC50 were determined by nonlinear regression analysis using GraphPad Prism 9.0 software.

In the next data set the test system is mice. The experiment in a line: Elevated plus maze (EPM). Particulars: vs control. The format is in vivo. On the procedure: Animals and housing conditions
In all pharmacodynamic in vivo experiments, except for the Barnes maze (BM) task, adult male Albino Swiss (CD-1) mice weighing between 18 and 22 g and purchased from the Animal Breeding Farm of the Faculty of Pharmacy, Jagiellonian University Medical College were used. In BM task, C57BL/6J mice of the same weight (Animalab, Poland) were used.
Animals were housed in cages (10 mice per cage) at a constant temperature of 22 ± 2 °C, humidity of 55 ± 10%, and a light/dark (12:12) cycle (lights on at 7 AM). Before the experiments, the animals had unlimited access to food and water. Specified conditions for the maintenance of mice were ensured throughout the experiments, including tree bedding (Transwior, Poland) and cage enrichment (tunnels, nesting material, wooden igloos, etc.). For the behavioral test, the mice were selected randomly; each group consisted of 7-12 mice. The experiments were performed between 9 AM and 3 PM. After in vivo tests, the animals were […]
Ethical approval statement
The procedures for the maintenance and treatment of laboratory animals were approved by the 1st Local Ethics Committee of the Jagiellonian University in Krakow (Approvals No. […]
of the closed arms. […] The following parameters were measured in this test: time spent in open arms of the EPM device and the number of entries to open arms. […]

Several values for one entry are separate records, joined by “and”; a condition that tells them apart may be missing. Identical values can stand only once. Entries after “also recorded” stand apart in the source; their conditions may differ. Like-named read-outs stand apart in the source and are kept apart here.

The IC50 is the concentration needed to halve the response being measured. A higher IC50 goes with weaker potency in that assay.

T3 sequence (P34969 whole entry): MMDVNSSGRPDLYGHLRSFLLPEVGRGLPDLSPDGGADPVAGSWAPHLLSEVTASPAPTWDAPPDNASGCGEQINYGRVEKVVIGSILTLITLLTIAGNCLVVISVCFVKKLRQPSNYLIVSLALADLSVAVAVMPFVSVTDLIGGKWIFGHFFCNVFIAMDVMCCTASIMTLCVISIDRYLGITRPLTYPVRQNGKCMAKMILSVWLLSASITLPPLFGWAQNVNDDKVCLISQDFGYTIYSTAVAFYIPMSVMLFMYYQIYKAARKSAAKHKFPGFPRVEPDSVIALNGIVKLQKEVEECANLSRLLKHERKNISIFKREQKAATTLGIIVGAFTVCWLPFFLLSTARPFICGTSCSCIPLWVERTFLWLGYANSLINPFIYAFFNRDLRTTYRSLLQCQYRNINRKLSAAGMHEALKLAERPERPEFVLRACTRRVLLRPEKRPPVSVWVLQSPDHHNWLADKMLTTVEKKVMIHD
T2 sequence (P81908 whole entry): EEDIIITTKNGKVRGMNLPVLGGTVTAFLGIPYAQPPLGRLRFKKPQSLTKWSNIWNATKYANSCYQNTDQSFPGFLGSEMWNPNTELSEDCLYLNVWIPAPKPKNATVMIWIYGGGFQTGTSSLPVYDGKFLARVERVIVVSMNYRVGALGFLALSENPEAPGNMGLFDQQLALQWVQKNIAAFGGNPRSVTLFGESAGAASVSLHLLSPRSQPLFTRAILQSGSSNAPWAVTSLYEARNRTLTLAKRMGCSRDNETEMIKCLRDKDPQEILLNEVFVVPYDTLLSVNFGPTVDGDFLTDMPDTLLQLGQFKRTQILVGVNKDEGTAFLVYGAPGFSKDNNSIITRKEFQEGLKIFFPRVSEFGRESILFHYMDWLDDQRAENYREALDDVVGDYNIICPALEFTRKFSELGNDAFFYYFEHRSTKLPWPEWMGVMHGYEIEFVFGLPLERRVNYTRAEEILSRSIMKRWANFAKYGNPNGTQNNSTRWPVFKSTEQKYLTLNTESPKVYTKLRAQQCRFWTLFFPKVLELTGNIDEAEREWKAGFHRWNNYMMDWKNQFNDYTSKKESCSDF
Sequence of serotonin transporter (SERT) (P31645 whole entry, species assumed): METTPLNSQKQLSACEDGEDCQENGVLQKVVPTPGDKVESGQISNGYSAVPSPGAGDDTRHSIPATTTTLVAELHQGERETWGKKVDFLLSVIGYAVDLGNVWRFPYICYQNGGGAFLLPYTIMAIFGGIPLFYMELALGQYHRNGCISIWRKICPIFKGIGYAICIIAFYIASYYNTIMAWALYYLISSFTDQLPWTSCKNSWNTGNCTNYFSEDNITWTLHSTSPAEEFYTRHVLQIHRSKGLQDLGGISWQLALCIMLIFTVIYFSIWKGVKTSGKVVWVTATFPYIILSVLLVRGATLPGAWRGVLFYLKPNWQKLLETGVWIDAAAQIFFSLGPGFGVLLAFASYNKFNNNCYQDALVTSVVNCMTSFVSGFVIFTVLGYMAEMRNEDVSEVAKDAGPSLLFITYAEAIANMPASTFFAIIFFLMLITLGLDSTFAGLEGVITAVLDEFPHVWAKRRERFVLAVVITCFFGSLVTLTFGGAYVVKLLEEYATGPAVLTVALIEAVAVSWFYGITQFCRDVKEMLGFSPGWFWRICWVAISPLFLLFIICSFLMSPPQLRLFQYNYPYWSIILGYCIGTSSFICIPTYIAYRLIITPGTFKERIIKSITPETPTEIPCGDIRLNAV

As for `O[C@H](CNCC1CC1)[C@H](Cc1ccccc1)NC1c2ccccc2-c2ccccc21` [Compound 6], the results for the IC50 against mGAT4 and on eqBuChE were 7.76 ± 0.36 µM and 0.31 ± 0.01 µM, respectively. In the data set on SH-SY5Y cells [1], the “increase in intracellular level of MDA” value is “no significant increase”. The “increase in intracellular RONS” value in the data set on SH-SY5Y cells [2] was “no significant increase”. Besides, the parent compound remaining in data set [3] was 90% and 89.57%. In addition, the “interaction with SERT” value in data set [4] is “ruled out interactions”. The Emax in data set [5] (read-out: 5-HT7 agonist mode E max % [10^-5 M]) was 8%; in data set [5] (read-out: 5-HT7 antagonist mode E max %) it was 0%. In the data set on mice (0.1 and 1 mg/kg i.p.), the “time spent in open arms” value is “prolonged time spent in open arms; also recorded: significant prolongation of time spent in the open arms”. The “number of open arm entries” value with mice (1 and 10 mg/kg i.p.) was “increased the number of open arm entries; also recorded: increased number of entries into the open arms”.

(Values after paper PMC11796312, “Multifunctional, Fluorene‐Based Modulator of Cholinergic and GABAergic Neurotransmission as a Novel Drug Candidate for Palliative Treatment of Alzheimer's Disease” (Angewandte Chemie (International Ed. in English), 2024).)
